In US9018440B2, “Fluorescent mouse model” (Stowers Institute for Medical Research, priority 2006, dated 2015):

How the values were obtained:
[1] = test system: G-protein coupled muscarinic acetylcholine receptors; assay: Acetylcholine challenge of HEK 293 cells co-transfected with TetO-G-CaMP2 and CMV-VP22-tTA, G-CaMP2 fluorescence; format: cell-based, human; details: 10 μM acetylcholine, HEK 293 TetO-G-CaMP2 + CMV-VP22-tTA, excited at 488 nm
Protocol: Cells co-transfected with the two plasmids show fluorescence, while cells with only one of the plasmids, or neither, are not fluorescent (Control, FIG. 1A). The addition of 10 μM acetylcholine (ACH) induces a subpopulation of cells to respond with increases in fluorescence (FIG. 1B). Acetylcholine activates G-protein coupled muscarinic acetylcholine receptors and mobilizes intracellular calcium. Arrows point to three of the responsive cells (a, b, and c of both FIGS. 1A and 1B).
(AFU: artificial fluorescence unit).
Human embryonic kidney cells (HEK 293) were co-transfected with TetO-G-CaMP2 and a construct containing a tetracycline transactivator protein under the control of a ubiquitous promoter (CMV-VP22-tTA). […] The change in fluorescence indicated proper function of the G-CaMP2 sensor combined with the tetracycline inducible system.

[2] = test system: glomeruli / sensory neurons of the olfactory bulb; assay: Odor stimulation of OMP-tTA-G-CaMP2 compound transgenic mice, fluorescence imaging of olfactory bulb; format: in vivo, mouse; details: for subset of sensory neurons / glomeruli activated by odor: different odors alone or combined, FIGS. 9 and 12; for activation of G-CaMP2 fluorescence in glomeruli by odor: odor delivered to the nose, thinned skull, FIG. 5; for course of G-CaMP2 intensity as the activation sequence progressed: FIGS. 10E and 11E; for sequence of glomeruli activation over length of odor exposure: FIGS. 10 and 11
Protocol: The compound transgenic mice (“transgenic mice”) containing the G-CaMP2 indicator targeted to the olfactory neurons may be used to evaluate neuron stimulation and map the signals sent in the brain. The response of sensory neurons was analyzed by stimulating transgenic mice with odor of varying concentrations. After anesthetizing mice with an injection of ketamine, the skin over the olfactory bulb was removed and the underlying skull covering the olfactory bulb was surgically thinned. The mice were then secured on an imaging plate and placed underneath a fluorescent microscope for imaging analysis. Background fluorescence was detected before odor stimulation (FIG. 5A). […] Amyl Acetate of various concentrations was also delivered to the nose of the animals using a custom made olfactometer. […] Odor delivery excited the sensory neurons, which generated action potentials that reached both olfactory bulbs.
The concentration of odor presented also activated glomeruli in a dose dependent manner (FIGS. 12C and 12D).
Animals are anesthetized with Ketamin/Xylazine cocktail and the righting reflex of the hind limbs are tested prior to surgery. Once deeply anesthetized, the hair over the head is shaved with a razor blade and a midline incision is made in the skin covering the skull to expose the olfactory bulb. For direct imaging, a head holder is glued to the bone and the animal is mounted to the microscope stage with the olfactory bulb region positioned right under the lens. (FIGS. 9 and 10). For bone thinning imaging, micro dental tools wet with saline are used to scrape the surface of the bone covering the olfactory bulb. Occasional air puffs are used to cool the thinning surface to prevent heat damage of the brain tissue. We normally stop when the bone can be indented by the gentle tough of a forceps tip, which is about 50 μm thick. The surface is then gently cleaned with saline and the head holder is attached for mounting the animal to the microscope.

| Compound | subset of sensory neurons / glomeruli activated by odor [2] | activation of G-CaMP2 fluorescence in glomeruli by odor [2] | course of G-CaMP2 intensity as the activation sequence progressed [2] | sequence of glomeruli activation over length of odor exposure [2] | other results |
| --- | --- | --- | --- | --- | --- |
| CC(=O)OCC[N+](C)(C)C [acetylcholine] |  |  |  |  | increase in fluorescence, cell A ([1]; FIG. 2A): approximately 90 AFU; increase in fluorescence, cell B ([1]; FIG. 2B): approximately 95 AFU; increase in fluorescence, cell C ([1]; FIG. 2C): approximately 50 AFU |
| CCCCCOC(C)=O [amyl acetate] | activated different neurons | several glomeruli activating G-CaMP2 fluorescence |  |  | response of right and left olfactory bulbs to various odor concentrations ([2]; various concentrations, olfactometer, FIG. 6): both the right and left olfactory bulbs were similarly stimulated |
| CCCC=O [butyraldehyde] | activated |  | continued to increase | sequentially activated glomeruli |  |
| CCCCCC(=O)O [hexanoic acid] | activated |  |  |  |  |
| CCCCCCCC=O [octanal] |  | response of several glomeruli to activate G-CaMP2 fluorescence | decrease in G-CaMP2 expression | activated several different glomeruli sequentially |  |
